The results in this text go back to patent US20050227994A1, “Decomposition inhibitor for extracellular matrix of cartilage” (Shionogi & Co., Ltd., priority 2002, published 2005).

SMILES strings stand for the structures. pIC50: −log10 of the molar value.

The target of this experiment is T1, MMP-13 (Homo sapiens, UniProt P45452).
T1 construct: catalytic domain (^104Tyr˜^267Gly) was amplified with RT-PCR; His-tag; enterokinase digestion-site; made in house
As to the kind of experiment: Assay for inhibitory activities on MMP-13. The conditions noted are these: catalytic domain, substrate MOCAc-Pro-Leu-Gly-Leu-A2Pr(DNP)-Ala-Arg-NH2; read-out: MMP-13 (IC50μM). It counts as biochemical. As to the method: In regard to MMP-13, mRNA was prepared from carcinoma cell SW1353 derived from human cartilage stimulate by IL-1, TNF and catalytic domain (^[…]) was amplified with RT-PCR. This was cloned in Escherichia. coli expression vector […] inserted with His-tag sequence and enterokinase digestion-site, induced and expressed by IPTG (Isopropyl-β-D-thiogalactopyranoside) and expressed in a insoluble fraction. Isolation of MMP-13 from an insoluble fraction was carried out by dissolving in modifier (6M urea) by a usual method and purification with metal chelate chromatography (Ni […] Sepharose). […] The enzymatic activity on MMP was analyzed by the method described in “C. Graham Knight, Frances Willenbrock and Gillian Murphy: A novel coumarin-labelled peptide for sensitive continuous assays of the matrix metalloproteinases: […] The substrate: MOCAc-[…] was purchased from Peptide Institute, Inc., Osaka, Japan.
As for `Cc1ccc(-c2ccc(-c3ccc(S(=O)(=O)N[C@@H](C(=O)O)C(C)C)s3)s2)cc1` [Compound L-1], the pIC50 is 7.51.

Consider `C[C@@H](NS(=O)(=O)c1ccc(-c2ccc(-n3cccc3)cc2)s1)C(=O)O` [Compound F-15], for which the pIC50 was 7.64. As to `CSc1ccc(-c2ccc(-c3ccc(S(=O)(=O)N[C@@H](C(=O)O)C(C)C)s3)s2)cc1` [Compound L-2], the pIC50 is 7.83. The value for `Cc1ccc(C#Cc2ccc(S(=O)(=O)N[C@H](Cc3c[nH]c4cccc(O)c34)C(=O)O)s2)cc1` [Compound H-5] was 7.48. For the molecule `Cc1ccc(C#Cc2ccc(S(=O)(=O)N[C@H](Cc3ccccc3)C(=O)O)cc2[N+](=O)[O-])cc1` [Compound G-4], the pIC50 was under 5.00. In the case of `CCCCc1ccc(-n2nnc(-c3ccc(S(=O)(=O)N[C@H](Cc4ccccc4)C(=O)O)cc3)n2)cc1` [Compound I-5], the pIC50 was 7.75. Consider `CSc1ccc(-c2ccc(S(=O)(=O)NC(Cc3ccccc3)C(=O)O)cc2)cc1` (stereo not drawn) [Compound E-6], for which the pIC50 is 8.59. Regarding `Cc1ccc(C#Cc2ccc(S(=O)(=O)Nc3cc(Cl)ccc3C(=O)O)s2)cc1` [Compound O-9], the pIC50 is under 5.00. Consider `CC(C)c1ccc(-c2nc(-c3ccc(S(=O)(=O)N[C@H](CC(=O)O)C(=O)O)cc3)no2)cc1` [Compound C-7], for which the pIC50 is 7.71.

Take `O=C(O)C(Cc1ccccc1)NS(=O)(=O)c1ccc(-c2ccc(F)cc2)cc1` (stereo not drawn) [Compound E-26]: the pIC50 was 6.68. For the molecule `CCCCc1ccc(-c2noc(-c3ccc(S(=O)(=O)N[C@H](Cc4ccccc4)C(=O)O)cc3)n2)cc1` [Compound D-3], the pIC50 is 7.00.

`CSc1ccc(-c2ccc(S(=O)(=O)NC(C)C(=O)O)cc2)cc1` (stereo not drawn) [Compound E-4]: the pIC50 was 7.68. Take `O=C(O)[C@@H](Cc1ccccc1)NS(=O)(=O)c1ccc(C#Cc2ccc3ccccc3c2)s1` [Compound H-2]: the pIC50 was under 5.00.

As to `CSc1ccc(-c2nc(-c3ccc(S(=O)(=O)N[C@H](Cc4ccccc4)C(=O)O)cc3)no2)cc1` [Compound C-10], the pIC50 is 7.76. Take `CC(C)[C@H](NS(=O)(=O)c1ccc(-c2ccc(N3CCCC3)cc2)s1)C(=O)O` [Compound F-18]: the pIC50 is 7.49. As to `Cc1ccc(C#Cc2ccc(S(=O)(=O)N[C@H](Cc3ccccc3)C(=O)O)s2)cc1F` [Compound H-13], the pIC50 was 7.22.

As for `Cc1ccc(-c2ccc(-c3ccc(S(=O)(=O)N[C@H](C(=O)O)C(C)C)s3)s2)cc1` [Compound L-5], the pIC50 was 6.87. Take `Cc1ccc(-c2ccc(-c3ccc(S(=O)(=O)NCCCC(=O)O)cc3)s2)cc1` [Compound O-5]: the pIC50 is under 5.00. On to `Cc1ccc(C#Cc2ccc(S(=O)(=O)N[C@H](Cc3c[nH]c4c(O)cccc34)C(=O)O)s2)cc1` [Compound H-6], for which the pIC50 was 7.95.

For `CSc1ccc(-c2ccc(S(=O)(=O)N3CCNC(=O)C3C)cc2)cc1` (stereo not drawn) [Compound O-7], the pIC50 was 6.05. On to `Cc1ccc(-c2ccc(S(=O)(=O)N[C@H](Cc3c[nH]c4ccccc34)C(=O)O)cc2)cc1` [Compound E-2], for which the pIC50 is 8.06. With `CC(C)[C@H](NS(=O)(=O)c1ccc(-c2ncc(-c3ccc(Br)cc3)s2)cc1)C(=O)O` [Compound A-5], the pIC50 is 8.70.

For `COc1ccc2cc(C#Cc3ccc(S(=O)(=O)N[C@H](Cc4ccccc4)C(=O)O)s3)ccc2c1` [Compound H-12], the pIC50 is 6.82. In the case of `Cc1ccc(-c2ccc(-c3ccc(S(=O)(=O)N[C@H](Cc4ccccc4)C(=O)O)s3)s2)cc1` [Compound L-3], the pIC50 was 6.96. On to `COc1ccc(-c2ccc(S(=O)(=O)N[C@H](CCSC)C(=O)O)s2)cc1` [Compound F-6], for which the pIC50 is 7.42. For `CNc1ccc(-c2ccc(S(=O)(=O)N[C@@H](Cc3ccccc3)C(=O)O)s2)cc1` [Compound F-22], the pIC50 was 6.07. Take `CCCCc1ccc(-c2noc(-c3ccc(S(=O)(=O)N[C@@H](C(=O)O)C(C)C)cc3)n2)cc1` [Compound D-1]: the pIC50 was 7.55.
